# According to patent US8071549B2, “Compounds capable of affecting differentiation, proliferation, regeneration, plasticity and survival cells” (priority 2001, dated 2011):
# Peptide text beside a SMILES is read from it.
# Columns and labels:
# hippocampal neurons = test: Neurite outgrowth from hippocampal neurons; details: for neurite outgrowth in dose-response study: bell-shaped dose-response curve, 24 h
# Experimental: Neurons were grown on Permanox plastic (Nunc, Denmark) for 24 h at a density 6250 cells/cm^2, at 37° C., 5% CO2 in Neurobasal medium containing 20 mM Hepes, 100 U/ml penicillin, 100 μg/ml streptomycin, 0.4% BSA supplemented with B27 (Gibco BRL, USA). After 24 h, cells were fixed with paraformaldehyde, stained with Coomassie Brilliant Blue R250 and analyzed.
# To test this assumption, dissociated neurons from embryonic rat hippocampus were seeded on plastic and allowed to grow for 24 h in the presence of the below described compounds. Thereafter, cells were fixed with paraformaldehyde, stained with Coomassie Brilliant Blue R250 and the length of neurites was measured using a stereological approach (Rønn et al., 2000).
# Peptides derived from the FG-lops of the neural cell adhesion molecules L1 and NCAM (third F3-module of L1 and first F3 module of NCAM) were prepared in different lengths, see FIG. 9a, and their effect on neurite outgrowth from primary hippocampal neurons were tested adding the various peptides in a concentration of 25 microM.
# FGF-receptor 1 = biological target: T1, FGF-receptor 1 (Homo sapiens, UniProt P11362); test: FGF-receptor phosphorylation in transfected HEK293 cells (immunoblotting); type: cell-based; details: 25 μM, 20 min, HEK293 cells with His-tagged FGF-receptor 1
# T1 construct: expressed in transfected cells; host or cells: HEK293, transient, PcDNA3.1(+) plasmid
# Experimental: Cells were grown in DMEM 1965 with 10% FCS, 100 U/ml penicillin, 100 μg/ml streptomycin and 58.4 g/l Glutamax. ˜0.8*10^6 cells were plated in 60 mm plates and cultured for 24 hrs before being transfected using LipofectAMIN PLUS™ reagent kit according to manufacturers instructions (Gibco BRL) with 0.2 μg PcDNA3.1(+) plasmid encoding a his-tagged (C-terminal hexa-histidine) version of FGFR-1. Cells were grown another 24 hrs in full medium, and then shifted to starving media (DMEM 1965 with 0.5% FCS) overnight.
# FGFR-1 transfected cells, incubated with 50 μg/ml NCAM derived recombinant fIII.2 or FG-loop for 20 minutes or non-stimulated, were lysed in 8M urea in PBS with 1 mM orthovanadate. The FGFR-1 was purified from total lysate via the His-tag moiety on an IMAC column. […] Samples were added SDS-PAGE sample buffer and analysed by western blotting using anti-pentahis ab (#34660 Qiagen) or anti-phosphotyrosine ab (PY20) (#11120 Transduction Laboratories). Bands were visualised by chemilumiscense and density was measured using a GeneGnome from SynGene with a 16 bit camera.
# Therefore, HEK293 cells were grown for 24 h on plastic plates, and subsequently transfected with a His-tagged version of the FGF-receptor 1 and cultured for another 24 h. […] The purified FGF-receptor 1 was then analyzed by immunoblotting using antibodies either to the His-tag or phosphotyrosine. […]
# [1] = system: Cerebellar granule neurons; test: Survival assay of cerebellar granule neurons in low potassium (MTS); type: cell-based, rat; details: 5 mM potassium, two days; for cells surviving, high potassium set at 100%: serum-free
# Experimental: Cerebellar granule neurons (CGN) from 7-days old rats are grown for 7-8 days in the presence of high potassium (40 mM). Cells are washed twice with serum-free culture medium (basal Eagle's medium BME) containing low potassium (5 mM) and grown in serum-free medium supplemented with FGL peptide for two days. Cultures are assayed for cell survival (D'Mello et al., 1997; Villalba et al., 1997; Skaper et al., 1998) by measuring reduction of MTS. MTS is a novel tetrazolium compound (Promega, USA), which is bioreduced by cells into a formazan that is soluble in tissue culture medium. The absorbance of the formazan at 490 nm is measured directly from 96 well assay plates without additional processing. The conversion of MTS into the aqueous soluble formazan is accomplished by dehydrogenase enzymes found in metabolically active cells. The quantity of formazan product as measured by the amount of 490 nm absorbance is directly proportional to the number of living cells in culture (Yao and Cooper, 1995);
# T1 sequence (P11362 22-822): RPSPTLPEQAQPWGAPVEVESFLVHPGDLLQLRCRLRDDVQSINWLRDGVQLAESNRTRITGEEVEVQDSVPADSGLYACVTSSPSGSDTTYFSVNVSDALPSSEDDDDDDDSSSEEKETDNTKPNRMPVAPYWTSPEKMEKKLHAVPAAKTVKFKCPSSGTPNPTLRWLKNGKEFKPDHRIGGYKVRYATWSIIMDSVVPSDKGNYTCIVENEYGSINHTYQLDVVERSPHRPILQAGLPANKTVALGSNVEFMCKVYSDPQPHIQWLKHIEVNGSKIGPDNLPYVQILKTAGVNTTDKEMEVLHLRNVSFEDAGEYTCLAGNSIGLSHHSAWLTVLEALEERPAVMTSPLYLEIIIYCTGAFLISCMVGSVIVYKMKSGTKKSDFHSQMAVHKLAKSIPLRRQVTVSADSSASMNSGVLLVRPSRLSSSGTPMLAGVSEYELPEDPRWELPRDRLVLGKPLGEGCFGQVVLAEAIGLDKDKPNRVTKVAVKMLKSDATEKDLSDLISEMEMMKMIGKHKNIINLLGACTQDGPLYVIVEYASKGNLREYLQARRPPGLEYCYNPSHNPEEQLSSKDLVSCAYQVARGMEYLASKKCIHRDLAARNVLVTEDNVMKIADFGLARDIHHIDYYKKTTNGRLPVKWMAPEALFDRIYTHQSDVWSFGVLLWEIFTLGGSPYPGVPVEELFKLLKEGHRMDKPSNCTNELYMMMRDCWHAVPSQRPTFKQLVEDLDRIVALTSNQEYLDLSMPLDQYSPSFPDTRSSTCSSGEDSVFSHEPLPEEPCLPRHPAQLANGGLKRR
molecule,measurement,setting,value
"Nc1ncnc2c1ncn2[C@@H]1O[C@H](COP(=O)(O)OP(=O)(O)CP(=O)(O)O)[C@@H](O)[C@H]1O [AMP-PCP, reference compound]",inhibition of the neuritogenic effect of the F3 module,"hippocampal neurons; 5 μM second F3 module, inhibitor 0.4 or 1 mM",complete inhibition
same,effect on neurite outgrowth when added alone,hippocampal neurons; 0.4 or 1 mM,did not have any effect
CC(C)[C@H](NC(=O)[C@H](Cc1ccc(O)cc1)NC(=O)[C@@H](NC(=O)[C@@H](N)CCC(=O)O)C(C)C)C(=O)N[C@H](C(=O)N[C@@H](C)C(=O)N[C@@H](CCC(=O)O)C(=O)N[C@@H](CC(N)=O)C(=O)N[C@@H](CCC(N)=O)C(=O)N[C@@H](CCC(N)=O)C(=O)NCC(=O)N[C@@H](CCCCN)C(=O)N[C@@H](CO)C(=O)N[C@@H](CCCCN)C(=O)N[C@@H](C)C(=O)O)C(C)C [FG loop peptide] (H-EVYVVAENQQGKSKA-OH),increase of FGF-receptor phosphorylation compared to control cells,FGF-receptor 1,approx. 100%
same,"survival, % of the positive control","[1]; 250 microgram per ml, monomeric form",up to 90%
same,"survival, result in words",[1]; dose-range 2-250 microgram per ml,statistically significant survival
same,inhibition of induced neurite outgrowth by an antibody against the FGF-receptor,hippocampal neurons; 5 μM second F3 module or 50 μM FG loop peptide,complete inhibition
same,neurite outgrowth in dose-response study,hippocampal neurons,induced neurite outgrowth
AENQQGK [heptamer Ala 77-Lys 83],stimulatory effect retained as compared to the entire (non-mutated) FG loop peptide,hippocampal neurons; 50 μM peptide,approximately 50%
same,neurite outgrowth in dose-response study,hippocampal neurons,induced neurite outgrowth
same,neuritogenic efficiency compared with the extended form,hippocampal neurons; dose-response study,less efficient than the extended form
AMKEDGR (listed as Homo sapiens),"neuritogenic potency (neurite outgrowth), result in words",hippocampal neurons; 50 μM peptide,to the same extent as the similar seven amino acids from the second F3 module of NCAM
EVAVVAENQQGASAA (listed as Homo sapiens),"neuritogenic potency (neurite outgrowth), result in words",hippocampal neurons; 50 μM peptide,retained its neuritogenic potency
same,stimulatory effect retained as compared to the entire (non-mutated) FG loop peptide,hippocampal neurons; 50 μM peptide,about 60%
same,inhibition of the peptide's stimulatory effect by ATP,"hippocampal neurons; 50 μM peptide, ATP 0.4 or 1 mM",could no longer be inhibited by ATP
VAENQQGKS (listed as Homo sapiens) [nonamer Val 76-Ser 84],stimulatory effect retained as compared to the entire (non-mutated) FG loop peptide,hippocampal neurons; 50 μM peptide,approximately 50%
"basic fibroblast growth factor: growth factor, natural ligand of the FGF-receptor, comparison in the survival assay [reference compound]","cells surviving, high potassium set at 100%",[1],~60%
"brains-derived neurotrophic factor: neurotrophic factor used as comparison in the survival assay (protein, UniProt P23560 19-247, looked up) Neurotrophic factor BDNF …: APMKEANIRGQGGLAYPGVRTHGTLESVNGPKAGSRGLTSLADTFEHVIEELLDEDQKVRPNEENNKDADLYTSRVMLSSQVPLEPPLLFLLEEYKNYLDAANMSMRVRRHSDPARRGELSVCDSISEWVTAADKKTAVDMSGGTVTVLEKVPVSKGQLKQYFYETKCNPMGYTKEGCRGIDKRHWNSQCRTTQSYVRALTMDSKKRIGWRFIRIDTSCVCTLTIKRGR","cells surviving, high potassium set at 100%",[1],~60%
